In patent US20210022339A1, “USE OF DELAYED DORMANT APPLICATIONS OF HOMOBRASSINOLIDE ON GRAPES TO ENHANCE BUD BREAK” (priority 2019, published 2021):
Entries after “also recorded” stand apart in the source; their conditions may differ. Like-named read-outs stand apart in the source and are kept apart here.

Experiments:
[1] = tested on: nearby crops; conditions: in vivo; cited from earlier work
[2] = tested on: laboratory animals; conditions: cited from earlier work; for toxicity: in vivo
[3] = tested on: Thompson Seedless Grapes; assay: Fruit growth uniformity; set-up: species or system Vitis; conditions: in vivo
[4] = tested on: Thompson Seedless Grapes; assay: Crop injury / phytotoxicity observation; set-up: species or system Vitis; conditions: in vivo
Description: (§1) A portion of an established commercial vineyard was used for the study. The HBR (FIG. 1) treatments were replicated down a single row and arranged in sets of 3 vines per plot. Plots were flagged with colored ribbon to identify the treatments and there were 4 replicates each. Spray applications were made when the vines were still dormant on Day 0 (Feb. 12, 2019) or during the delayed dormant period, when buds were swollen or at eraser stage, on Day 24 (Mar. 8, 2019)). […] Crop injury was rated using a scale of 0-10, where 0=no injury and 10=100% of tree injured. Percentage bud break was evaluated by counting numbers of shoots from 30 nodes on fruiting canes from trunk to trunk and 5 renewal spurs were chosen non-systematically on Day 34 (Mar. 18, 2019) and Day 41 (Mar. 25, 2019).

[5] = tested on: Thompson Seedless Grapes; assay: Number of shoots (overcoming apical dominance); format: in vivo, Vitis
Description: as §1

[6] = tested on: Thompson Seedless Grapes; assay: Percentage bud break on fruiting canes, vineyard trial; format: in vivo, Vitis; conditions: for bud break on fruiting canes, efficacy: compared to the untreated check
Description: as §1
Statistical differences were highly significant and variability in the data was low. Having waited until approximately 55 chill portions (a quantification of the aggregate low temperature exposure needed for a crop to break dormancy), the dormant sprays allowed both the Hydrogen Cyanamide (Dormex®) treated and untreated vines to accumulate the maximum chilling. […] Uniformity was enhanced by both Dormex® and 5 ppm ai HBR applied as a dormant spray. Variability was lowest in the untreated check by 41 DAA even though bud break had not reached 90%. It is not unusual for bud break to exceed 100% because secondary shoots were stimulated by the effects of overcoming apical dominance by both effective rest breaking and the accumulation of maximum chilling by untreated vines. FIGS. 6 and 7.

[7] = tested on: vines; conditions: cited from earlier work
[8] = tested on: Thompson Seedless Grapes; assay: Percentage bud break on renewal spurs, vineyard trial; format: in vivo, Vitis; conditions: by 41 DAA
Description: as §1
However, the results were statistically significant between the rest breaking treatments as a group compared to the untreated check at both evaluation intervals. […] It appeared that spur bud break had peaked by 34 DAA because by 41 DAA, percentages were mostly the same. Only the untreated check continued to break buds, which remained approximately 15% lower than the rest breaking treatments as a group.

[9] = label for 0.1% HBR; SDS from Alzchem; cited from earlier work
[10] = tested on: Thompson Seedless Grapes; conditions: grapes and other fruit crops; cited from earlier work

CC[C@@H](C(C)C)C(O)C(O)[C@@H](C)[C@H]1CC[C@H]2[C@@H]3COC(=O)[C@H]4C[C@H](O)[C@H](O)C[C@]4(C)[C@H]3CC[C@]12C (stereo in doubt) [HBR, homobrassinolide]
effect on nearby crops [1]: no evidence that HBR has harmful effects on nearby crops
toxicity [2]: non-toxic mode of action
fruit growth uniformity [3]: enhance fruit growth uniformity
crop injury [4]: without crop injury
phytotoxicity [4]: non-phytotoxic
shoots compared to control ([5]; 1 ppm ai): increased shoots compared to control
shoots compared to control ([5]; 2 ppm ai): increased shoots compared to control
shoots compared to control ([5]; 5 ppm ai): increased shoots compared to control
shoots compared to the standard treatment ([5]; both 1 ppm ai and 1 ppm ai treatments (so in the source)): comparable to the Hydrogen Cyanamide standard treatment
number of shoots ([5]; either dormant or delayed dormant spray applications): increased number of shoots
bud break on fruiting canes, efficacy ([6]; 1 ppm ai applied at early bud swell): as effective as the standard rate of Dormex
bud break on fruiting canes, efficacy ([6]; 2 ppm ai applied at early bud swell): as effective as the standard rate of Dormex
bud break uniformity ([6]; 5 ppm ai applied as a dormant spray): enhanced
bud break on fruiting canes, effects ([6]; 5 ppm applied delayed dormant, 34 DAA): statistically equivalent to the untreated check
active concentration range ([6]; in vivo): nano molar to pico molar range
lowering of the fruitability of vines ([7]; in vivo): no such effect
spur bud break, effects ([8]; 2 ppm ai applied at bud swell): equivalent to the untreated check

N#CN [Dormex, Hydrogen Cyanamide, reference compound]
effect on nearby crops [1]: can damage nearby crops
adverse effects in laboratory animals ([2]; California EPA Department of Pesticide Regulation study): causes adverse effects in the liver, thyroid, kidney, ovaries, and testes
toxicity [2]: reported toxicity due to acute exposure; also recorded: can be acutely toxic when misused
biodegradability [9]: not readily biodegradable
phytotoxicity [10]: can be phytotoxic
bud break uniformity ([6]; Dormex standard rate, dormant spray): enhanced
amount needed to approach the effect of HBR, times ([6]; in vivo): approximately 20,000 times
lowering of the fruitability of vines ([7]; repeated use over the years): 20-30 % per year
spur bud break [8]: < 100%
